Measurements from US12227517B2, “Pyridazinyl-thiazolecarboxamide compound” (Astellas Pharma Inc., priority 2019, dated 2025).
Counter-ions that a name gives are not always drawn.

Assays:
human recombinant DGK ξ = human recombinant DGK ξ (Homo sapiens (Human), UniProt Q13574); assay: Evaluation of DGK ξ inhibitory effect (ADP-Glo Kinase Assay); type: biochemical
Procedure: Test Example 1: Evaluation of DGK ξ Inhibitory Effect
The inhibitory effect of a test compound on human recombinant DGK ξ (Carna Biosciences, Inc., 12-410-20N) was examined by the following method in which detection is performed with ADP-Glo™ Kinase Assay (Promega Corporation).
To a 384-well plate (Greiner Bio-One Co., Ltd.), 3 μL of a […] dissolved in an assay buffer (40 mM Tris-HCl pH 7.5, 10 mM MgCl2, 1 mM dithiothreitol (DTT) and 0.1 mg/mL bovine serum albumin (BSA)) (90 ng/mL) was added, and 3 μL of the test compound diluted with the same assay buffer was added so that an intended final concentration was obtained. The mixture was left standing at room temperature for 15 minutes, 3 μL of a substrate (150 μM 1-oleoyl-2-acetyl-sn-glycerol (Sigma-Aldrich Co. LLC.), 480 μM phosphatidylserine (Avanti Polar Lipids, Inc.) and 150 μM UltraPure-ATP (attached to ADP-Glo)) was then added, and the mixture was left standing at room temperature for 30 minutes to react. Thereafter, 3 μL of an ADP-Glo Reagent was added, and the mixture was left standing at room temperature for 40 minutes to stop the enzyme reaction. Further, 6 μL of a Kinase-Detection Reagent was added, the mixture was left standing at room temperature for 30 minutes, and the luminescence was then measured using ARVO X3 (PerkinElmer, Inc.). The half maximal inhibitory concentration (IC50) was calculated by Sigmoid-Emax model non-linear regression analysis, where the signal value in solvent treatment was set to 0% inhibition and the signal value without addition of the DGK ξ enzyme was set to 100% inhibition. […] In the table, Ex represents the number of each Example described below. Also, in the table, compound C (cpd. C) represents the test compound of the Example 199 described in the international publication WO 2008/054702.

Jurkat E6.1 cells = assay: Evaluation of IL-2 production in human T cell leukemia cell line Jurkat E6.1 (TCR stimulation anti-CD3/anti-CD28); type: cell-based; details: concentration at which IL-2 increased to 10 times the solvent control, Jurkat E6.1, anti-CD3/anti-CD28, 24 hours, read-out: EC10fold
Procedure: Test Example 2: Evaluation of IL-2 Production in Human T Cell Leukemia Cell Line Jurkat E6.1
The effect of the test compound on the IL-2 production by T cell receptor (TCR) stimulation (anti-CD3/anti-CD28) in Jurkat E6.1 cells (ECACC, 88042803) was evaluated.
A 5 μg/mL anti-CD3 antibody (eBioscience, Inc., OKT3 clone) diluted with phosphate buffer saline (PBS) was added to a 96-well plate (Iwaki & Co., Ltd.) at 50 μL/well, and left standing at 4° C. for 12 hours or more to provide an anti-CD3 antibody-coated plate in advance. When the plate was used for experiments, the plate was washed with 200 μL of PBS once, an anti-CD28 antibody (eBioscience, Inc., 28.2 clone) diluted to a concentration of […] with a culture medium (RPMI1640 (Sigma-Aldrich Co. LLC.) containing 10% fetal bovine serum (Hyclone Laboratories, Inc.)) was then added at 10 μL/well, and the plate was used for assay as a culture plate for TCR stimulation.
Subsequently, the test compound was mixed with Jurkat E6.1 cells in such a manner that an intended final concentration was obtained, and the mixture was plated at 90 μL/well so that the number of cells per well was 1×10^5 (that is, finally the culture was performed at 1×10^5 cells/100 μL/well). For culture cell conditions, the culture was performed at 37° C. in the presence of 5% CO2 using RPMI1640 medium containing 10% fatal bovine serum.
After 24 hours, the culture supernatant was collected, and IL-2 was quantitatively determined using AlphaLISA human IL2 Immunoassay Research Kit (PerkinElmer, Inc.). The IL-2 measurement was performed under Alpha Screen standard setting conditions (the fluorescence intensity at 570 nm was measured with an excitation wavelength of 680 nm) using EnVision 2104-0010 and EnVision 2104-0020 (PerkinElmer, Inc.). The IL-2 quantitative value of the solvent treatment control was set to 1, and the test compound concentration at which the IL-2 quantitative value of the test compound treatment sample increased to 10 times the IL-2 quantitative value of the control (EC10fold) was calculated by inverse estimation with the aid of Sigmoid-Emax model non-linear regression analysis. […] In the table, Ex represents the number of each Example described below.

MC38 cells = assay: Antitumor effect in syngeneic mouse model bearing mouse colon adenocarcinoma cell line MC38; type: in vivo; details: relative tumor growth inhibition, MC38, C57BL/6J mice, oral, twice a day day 1-10 and once on day 11
Procedure: Test Example 3: Evaluation of Antitumor Effect in Syngeneic Mouse Model Bearing Mouse Colon Adenocarcinoma Cell Line MC38
A cell suspension liquid prepared by suspending MC38 cells (supplied from National Cancer Institute) in PBS at 4.0×10^6 cells/mL was subcutaneously inoculated into 6-week-old female mice (C57BL/6J from Charles River Laboratories Japan, Inc.) in a volume of 50 μL. 4 days after the inoculation, the mice were grouped in such a manner that there was substantially no difference in tumor volume between groups, and administration of the test compound was started. The test was conducted with a solvent group and a test compound administration group each having 10 mice. 0.5% methylcellulose (Shin-Etsu Chemical Co., Ltd.) was orally administered to the solvent group, and 0.5% methylcellulose mixed with the test compound was orally administered to the test compound administration group. The administration was performed twice a day from day 1 to day 10 and once a day on day 11, and the tumor diameter and the body weight were measured twice a week. The following expression was used for calculation of the tumor volume. [tumor volume (mm^3)]=[tumor major diameter (mm)]×[tumor minor diameter (mm)]^2×0.5
The relative tumor growth inhibition (%) of the test compound was calculated, where the tumor volume of the test compound administration group immediately before the start of administration was set to 100% inhibition, and the tumor volume of the solvent group on the last day of administration was set to 0% inhibition. […] In the table, Ex represents the number of each Example described below.

B16-F1 cells = assay: Antitumor effect in syngeneic mouse model bearing mouse melanoma cell line B16-F1; type: in vivo; details: relative tumor growth inhibition, B16-F1, oral
Procedure: Test Example 4: Evaluation of Antitumor Effect in Syngeneic Mouse Model Bearing Mouse Melanoma Cell Line B16-F1
A cell suspension liquid prepared by suspending B16-F1 cells (ATCC, CRL-6323) in PBS at 2.0×10^6 cells/mL or 1.0×10^7 cells/mL was subcutaneously inoculated into 5-week-old female mice (C57BL/6J from Charles River Laboratories Japan, Inc.) in a volume of 50 μL. 5 days after the inoculation, the mice were grouped in such a manner that there was substantially no difference in tumor volume between groups, and administration of the test compound was started. The test was conducted with a solvent group and a test compound administration group each having 10 mice. 0.5% methylcellulose was orally administered to the solvent group, and 0.5% methylcellulose mixed with the test compound was orally administered to the test compound administration group. The administration was performed according to the regimen described in Table 4, and the tumor diameter and the body weight were measured twice a week. The following expression was used for calculation of the tumor volume. [tumor volume (mm^3)]=[tumor major diameter (mm)]×[tumor minor diameter (mm)]^2×0.5
The relative tumor growth inhibition (%) of the test compound was calculated, where the tumor volume of the test compound administration group immediately before the start of administration was set to 100% inhibition, and the tumor volume of the solvent group on the day after the last administration was set to 0% inhibition. […] In the table, Ex represents the number of each Example described below.

[1] = 0.1 mg/kg, 1/day, 8 days, 1 × 10^5 cells inoculated

Chain of human recombinant DGK ξ (Q13574 whole entry): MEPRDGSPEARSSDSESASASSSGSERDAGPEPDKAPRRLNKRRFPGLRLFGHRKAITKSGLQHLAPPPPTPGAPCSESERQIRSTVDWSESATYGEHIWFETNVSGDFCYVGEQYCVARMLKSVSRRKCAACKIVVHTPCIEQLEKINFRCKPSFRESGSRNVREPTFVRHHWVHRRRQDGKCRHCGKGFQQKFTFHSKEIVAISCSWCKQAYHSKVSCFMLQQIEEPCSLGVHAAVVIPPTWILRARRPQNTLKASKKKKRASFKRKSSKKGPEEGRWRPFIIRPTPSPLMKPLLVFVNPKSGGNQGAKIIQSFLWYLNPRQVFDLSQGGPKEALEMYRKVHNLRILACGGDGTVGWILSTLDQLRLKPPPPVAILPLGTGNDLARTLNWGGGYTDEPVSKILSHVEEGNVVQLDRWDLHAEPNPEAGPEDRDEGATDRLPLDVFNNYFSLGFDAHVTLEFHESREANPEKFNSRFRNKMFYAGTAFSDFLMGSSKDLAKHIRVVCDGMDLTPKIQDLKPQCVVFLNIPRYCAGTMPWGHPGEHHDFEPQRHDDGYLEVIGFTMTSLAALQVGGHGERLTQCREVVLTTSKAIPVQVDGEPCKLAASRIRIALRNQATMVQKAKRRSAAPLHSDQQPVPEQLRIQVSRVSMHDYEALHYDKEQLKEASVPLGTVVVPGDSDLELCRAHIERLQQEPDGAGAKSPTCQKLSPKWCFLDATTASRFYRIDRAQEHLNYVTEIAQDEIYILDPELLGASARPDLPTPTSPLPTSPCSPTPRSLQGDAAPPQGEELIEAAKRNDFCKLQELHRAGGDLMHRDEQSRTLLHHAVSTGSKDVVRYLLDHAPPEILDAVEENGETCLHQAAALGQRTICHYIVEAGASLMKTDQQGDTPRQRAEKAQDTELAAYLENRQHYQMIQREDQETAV

| IC50 (human recombinant DGK ξ) | EC50 (Jurkat E6.1 cells) | Structure (SMILES) | Antitumor effect (MC38 cells; 5 mg/kg) | Antitumor effect (B16-F1 cells; 0.5 mg/kg, 2/day, 10 days, 5 × 10^5 cells inoculated) | Antitumor effect (MC38 cells; 4.7 mg/kg) | Antitumor effect (B16-F1 cells; [1]) | Antitumor effect (B16-F1 cells; 1.5 mg/kg, 2/day, 10 days, 5 × 10^5 cells inoculated) | Antitumor effect (B16-F1 cells; 0.3 mg/kg, 1/day, 10 days, 1 × 10^5 cells inoculated) | Antitumor effect (B16-F1 cells; 0.03 mg/kg, 1/day, 10 days, 1 × 10^5 cells inoculated) |
| --- | --- | --- | --- | --- | --- | --- | --- | --- | --- |
| 8 nM | 18 nM | NC[C@@H]1CCCN(c2c(NC(=O)c3csc(-c4ccnnc4)n3)ccc(Oc3ccccc3)c2C(F)(F)F)C1 [Example 9, N-{2-[(3S)-3-(aminomethyl)piperidin-1-yl]-4-phenoxy-3-(trifluoromethyl)phenyl}-2-(pyridazin-4-yl)-1,3-thiazole-4-carboxamide] | 64% Inhibition | 36% Inhibition | – | – | – | – | – |
| 8 nM | 173 nM | CNC[C@@H]1CCCN(c2c(NC(=O)c3csc(-c4ccnnc4)n3)ccc(Oc3ccccc3F)c2C(F)(F)F)C1.Cl [Example 10] | – | – | 60% Inhibition | 42% Inhibition | – | – | – |
| 19 nM | 32 nM | NC[C@@H]1CCCN(c2c(NC(=O)c3csc(-c4ccnnc4)n3)ccc(Oc3cccc(F)c3)c2C(F)(F)F)C1 [Example 11] | 63% Inhibition | – | – | – | – | – | – |
| 5 nM | 9 nM | NC[C@@H]1CCCN(c2c(NC(=O)c3csc(-c4ccnnc4)n3)ccc(Oc3ccccc3F)c2C(F)(F)F)C1 [Example 33] | 36% Inhibition | – | – | – | – | – | – |
| 12 nM | 30 nM | NC[C@H]1CCCN1c1c(NC(=O)c2csc(-c3ccnnc3)n2)ccc(Oc2ccccc2)c1C(F)(F)F [Example 34] | 55% Inhibition | – | – | – | 48% Inhibition | – | – |
| 2 nM | 36 nM | COCCN1CCC2(CC1)CN(c1c(NC(=O)c3csc(-c4ccnnc4)n3)ccc(Oc3ccccc3)c1C(F)(F)F)CCO2 [Example 59, N-{2-[9-(2-methoxyethyl)-1-oxa-4,9-diazaspiro[5.5]undecan-4-yl]-4-phenoxy-3-(trifluoromethyl)phenyl}-2-(pyridazin-4-yl)-1,3-thiazole-4-carboxamide dihydrochloride] | – | – | – | 46% Inhibition | – | – | – |
| 5 nM | 27 nM | N[C@@H]1CCN2CCN(c3c(NC(=O)c4csc(-c5ccnnc5)n4)ccc(Oc4ccccc4)c3C(F)(F)F)C[C@@H]12 [Example 78, N-{2-[(8R,8aS)-8-aminohexahydropyrrolo[1,2-a]pyrazine-2(1H)-yl]-4-phenoxy-3-(trifluoromethyl)phenyl}-2-(pyridazin-4-yl)-1,3-thiazole-4-carboxamide] | – | – | – | – | – | 30% Inhibition | – |
| 0.7 nM | 5 nM | CN(C)[C@@H]1CCN2CCN(c3c(NC(=O)c4csc(-c5ccnnc5)n4)ccc(Oc4ccccc4)c3C(F)(F)F)C[C@@H]12 [Example 80] | – | – | – | – | – | – | 30% Inhibition |
